# Results as given in patent US7655767B2, “Use of thiazolyl-pyridinium based dyes in optical layers for optical data recording” (priority 2004, dated 2010).
# Assay: Thermal decomposition (TGA / DSC)
# Assay type: physicochemical
# Settings: not given
# Source text: The optical and thermal properties of the thiazolyl-pyridinium based dye compounds were studied. The dyes show high absorption at the desired wavelengths. In addition, the shape of the absorption spectra, that still remains critical to the disc reflectivity and formation of clean mark edges, are composed of one major band, comprised in a range of from 350 to 500 nm, preferably of from 350 to 400 nm.
# Sharp threshold of thermal decomposition within the required temperature range characterizes the new thiazolylpyridinium based dyes which are assumed to be desirable for the application in optical layers for optical data recording.
row,TGA (decomp.) [°C],Structure (SMILES)
1,244,"C[n+]1ccc(-c2nc3ccc(Cl)cc3s2)cc1.[I-] [Example 12, 1-methyl-4-(6-chlor-benzothiazol-2-yl)pyridinium iodide]"
2,250,"COc1ccc(-c2csc(-c3cc[n+](C)cc3)n2)cc1.[I-] [Example 10, 4-[4-(4-methoxy-phenyl)-thiazol-2-yl]-1-methyl-pyridinium iodide]"
3,240,COc1ccc(-c2csc(-c3cc[n+](C(C)C)cc3)n2)cc1 [Example 11]

# More lines, now with the values behind:
row,Structure (SMILES),TGA (decomp.) [°C]
1,"CC(C)[n+]1ccc(-c2nc(-c3ccccc3)cs2)cc1.[I-] [Example 7, 1-isopropyl-4-[4-phenyl-thiazolyl-(2)]-pyridiniumiodide]",270
2,"C[n+]1ccc(-c2nc(-c3ccccc3)cs2)cc1.[I-] [Example 9, 1-methyl-4-[4-phenyl-thiazolyl-(2)]-pyridinium iodide]",260

# Assay: Solubility in 2,2,3,3-tetrafluoropropanol
# Settings: 20 °C, organic solvent or mixture
row,Structure (SMILES),solubility [mg/mL]
1,"CC(C)[n+]1ccc(-c2nc(-c3ccccc3)cs2)cc1.[I-] [Example 7, 1-isopropyl-4-[4-phenyl-thiazolyl-(2)]-pyridiniumiodide]",> 50
2,"C[n+]1ccc(-c2nc(-c3ccccc3)cs2)cc1.[I-] [Example 9, 1-methyl-4-[4-phenyl-thiazolyl-(2)]-pyridinium iodide]",> 30
3,"C[n+]1ccc(-c2nc3ccc(Cl)cc3s2)cc1.[I-] [Example 12, 1-methyl-4-(6-chlor-benzothiazol-2-yl)pyridinium iodide]",> 50
4,"C[n+]1ccc(-c2nc(C(C)(C)C)cs2)cc1.[I-] [Example 8, 1-methyl-4-[4-tert-butyl-thiazolyl-(2)]-pyridiniumiodide]",> 5e-05
5,"COc1ccc(-c2csc(-c3cc[n+](C)cc3)n2)cc1.[I-] [Example 10, 4-[4-(4-methoxy-phenyl)-thiazol-2-yl]-1-methyl-pyridinium iodide]",> 50
6,COc1ccc(-c2csc(-c3cc[n+](C(C)C)cc3)n2)cc1 [Example 11],> 50
